The record followed here is PMC2610677 (Chemistry & biology, 2008).

This assay concerns the target trORAS (truncated ORAS) (Neurospora crassa, UniProt Q7S6N4). The assay can be described thus: HPLC of CoASH release, initial velocities, Michaelis-Menten fit. Format: biochemical. The note with it: malonyl-CoA (100 mM [sic]) as extender; 50 mM Tris-HCl pH 7.0; 30 °C.

Each structure is given as a SMILES string.

Broadly, the Km is the substrate concentration at which the rate is half of its maximum. As to `CCCCCCCCCCCCCCCCCC(=O)SCCNC(=O)CCNC(=O)[C@H](O)C(C)(C)COP(=O)(O)OP(=O)(O)OC[C@H]1O[C@@H](n2cnc3c(N)ncnc32)[C@H](O)[C@@H]1OP(=O)(O)O` [7a, stearoyl-CoA], the Km was determined as 3.5 µM.
